From PMC9851200, “Multiparameter phenotypic screening for endogenous TFEB and TFE3 translocation identifies novel chemical series modulating lysosome function” (Autophagy, 2022)

Experiments:
SH-SY5Y cells [1] = settings: PKIS2 primary screening; for DQ Intensity: DQ Red BSA intensity; for DQ Spot: DQ Red BSA spot count
From the text: The PKIS2 Library was supplied by The Structural Genomics Consortium at the University of North Carolina at Chapel Hill.

SH-SY5Y cells [2] = test: AK (adenylate kinase) release ToxiLight cytotoxicity assay; settings: PKIS2 primary screening; note: reference of the scale not given here
endogenous TFEB = test: TFEB nuclear translocation, immunocytochemistry high-content imaging; format: cell-based; settings: PKIS2 primary screening; note: test concentration or dose not given here
endogenous TFE3 = test: TFE3 nuclear translocation, immunocytochemistry high-content imaging; format: cell-based; settings: PKIS2 primary screening; note: test concentration or dose not given here
SH-SY5Y cells [3] = test: Nuclear count from microscopy images (cellular growth and toxicity); settings: PKIS2 primary screening; note: reference of the scale not given here
Throughout, for DQ Intensity: reference of the scale not given here.
Throughout, for DQ Spot: reference of the scale not given here.

## COc1ccc(Nc2nccc(N3CCC(NS(=O)(=O)c4ccc(NC(C)=O)cc4)C3)n2)cc1 (stereo not drawn) [GSK1379729]
SH-SY5Y cells [1]
  DQ Intensity: 76.81
  DQ Spot: 100.23
SH-SY5Y cells [2]
  AK: 69.35
Endogenous TFEB
  TFEB %: 5.22%
Endogenous TFE3
  TFE3 %: 16.51%
SH-SY5Y cells [3]
  Nuclear Count: 90.61

## COc1ccc(Nc2nccc(N3CCC(NC(=O)c4cccc(C#N)c4)C3)n2)cc1 (stereo not drawn) [GSK1379730]
SH-SY5Y cells [1]
  DQ Intensity: 67.56
  DQ Spot: 85.55
SH-SY5Y cells [2]
  AK: 125.87
Endogenous TFEB
  TFEB %: 9.20%
Endogenous TFE3
  TFE3 %: 13.54%
SH-SY5Y cells [3]
  Nuclear Count: 108.33

## COc1ccc(Nc2nccc(N3CCC(NC(=O)Nc4cccc(C(C)=O)c4)C3)n2)cc1 (stereo not drawn) [GSK1379731]
SH-SY5Y cells [1]
  DQ Intensity: 109.14
  DQ Spot: 92.48
SH-SY5Y cells [2]
  AK: 78.89
Endogenous TFEB
  TFEB %: 9.04%
Endogenous TFE3
  TFE3 %: 14.27%
SH-SY5Y cells [3]
  Nuclear Count: 122.85

## COc1ccc(Nc2nccc(N3CCC(NC(=O)c4cccc(NC(C)=O)c4)C3)n2)cc1 (stereo not drawn) [GSK1379732]
SH-SY5Y cells [1]
  DQ Intensity: 114.89
  DQ Spot: 106.49
SH-SY5Y cells [2]
  AK: 83.81
Endogenous TFEB
  TFEB %: 5.92%
Endogenous TFE3
  TFE3 %: 6.22%
SH-SY5Y cells [3]
  Nuclear Count: 135.73

## COc1ccc(Nc2nccc(N3CCC(NC(=O)C(C)c4ccc(Cl)cc4)C3)n2)cc1 (stereo not drawn) [GSK1379735]
SH-SY5Y cells [1]
  DQ Intensity: 99.92
  DQ Spot: 94.04
SH-SY5Y cells [2]
  AK: 70.53
Endogenous TFEB
  TFEB %: 5.13%
Endogenous TFE3
  TFE3 %: 11.71%
SH-SY5Y cells [3]
  Nuclear Count: 119.80

## CCCc1ccc(S(=O)(=O)NC2CCN(c3ccnc(Nc4ccc(OC)cc4)n3)C2)cc1 (stereo not drawn) [GSK1379737]
SH-SY5Y cells [1]
  DQ Intensity: 83.70
  DQ Spot: 93.35
SH-SY5Y cells [2]
  AK: 106.07
Endogenous TFEB
  TFEB %: 5.95%
Endogenous TFE3
  TFE3 %: 12.75%
SH-SY5Y cells [3]
  Nuclear Count: 116.08

## COc1ccc(Nc2nccc(N3CCC(NC(=O)c4cc5ccccc5s4)C3)n2)cc1 (stereo not drawn) [GSK1379738]
SH-SY5Y cells [1]
  DQ Intensity: 52.05
  DQ Spot: 80.56
SH-SY5Y cells [2]
  AK: 106.01
Endogenous TFEB
  TFEB %: 5.33%
Endogenous TFE3
  TFE3 %: 9.69%
SH-SY5Y cells [3]
  Nuclear Count: 101.04

## COc1ccc(Nc2nccc(N3CCC(NC(=O)Nc4cc(C)ccc4C)C3)n2)cc1 (stereo not drawn) [GSK1379741]
SH-SY5Y cells [1]
  DQ Intensity: 91.14
  DQ Spot: 90.28
SH-SY5Y cells [2]
  AK: 100.67
Endogenous TFEB
  TFEB %: 3.59%
Endogenous TFE3
  TFE3 %: 9.28%
SH-SY5Y cells [3]
  Nuclear Count: 115.70

## COc1ccc(Nc2nccc(N3CCC(NC(=O)Nc4cccc(OC)c4)C3)n2)cc1 (stereo not drawn) [GSK1379742]
SH-SY5Y cells [1]
  DQ Intensity: 119.16
  DQ Spot: 99.38
SH-SY5Y cells [2]
  AK: 126.78
Endogenous TFEB
  TFEB %: 8.93%
Endogenous TFE3
  TFE3 %: 16.87%
SH-SY5Y cells [3]
  Nuclear Count: 103.65

## COc1ccc(Nc2nccc(N3CCC(NC(=O)Nc4ccc5c(c4)OCO5)C3)n2)cc1 (stereo not drawn) [GSK1379745]
SH-SY5Y cells [1]
  DQ Intensity: 69.10
  DQ Spot: 77.91
SH-SY5Y cells [2]
  AK: 76.28
Endogenous TFEB
  TFEB %: 10.83%
Endogenous TFE3
  TFE3 %: 19.51%
SH-SY5Y cells [3]
  Nuclear Count: 86.22

## COC(=O)c1cccc(NC(=O)NC2CCN(c3ccnc(Nc4ccc(OC)cc4)n3)C2)c1 (stereo not drawn) [GSK1379746]
SH-SY5Y cells [1]
  DQ Intensity: 97.94
  DQ Spot: 97.45
SH-SY5Y cells [2]
  AK: 99.00
Endogenous TFEB
  TFEB %: 6.50%
Endogenous TFE3
  TFE3 %: 11.39%
SH-SY5Y cells [3]
  Nuclear Count: 105.57

## COc1ccc(CNC(=O)NC2CCN(c3ccnc(Nc4cc(OC)c(OC)c(OC)c4)n3)C2)cc1 (stereo not drawn) [GSK1379748]
SH-SY5Y cells [1]
  DQ Intensity: 92.45
  DQ Spot: 91.07
SH-SY5Y cells [2]
  AK: 124.35
Endogenous TFEB
  TFEB %: 3.68%
Endogenous TFE3
  TFE3 %: 7.30%
SH-SY5Y cells [3]
  Nuclear Count: 99.04

## COc1cc(Nc2nccc(N3CCC(NC(=O)c4cccc(C#N)c4)C3)n2)cc(OC)c1OC (stereo not drawn) [GSK1379751]
SH-SY5Y cells [1]
  DQ Intensity: 80.41
  DQ Spot: 103.20
SH-SY5Y cells [2]
  AK: 124.29
Endogenous TFEB
  TFEB %: 5.62%
Endogenous TFE3
  TFE3 %: 13.31%
SH-SY5Y cells [3]
  Nuclear Count: 92.57

## COc1cc(Nc2nccc(N3CCC(NC(=O)Nc4cccc(C(C)=O)c4)C3)n2)cc(OC)c1OC (stereo not drawn) [GSK1379753]
SH-SY5Y cells [1]
  DQ Intensity: 96.48
  DQ Spot: 93.76
SH-SY5Y cells [2]
  AK: 112.38
Endogenous TFEB
  TFEB %: 2.90%
Endogenous TFE3
  TFE3 %: 10.72%
SH-SY5Y cells [3]
  Nuclear Count: 116.36

## COc1cc(Nc2nccc(N3CCC(NC(=O)c4cccc(NC(C)=O)c4)C3)n2)cc(OC)c1OC (stereo not drawn) [GSK1379754]
SH-SY5Y cells [1]
  DQ Intensity: 91.71
  DQ Spot: 95.86
SH-SY5Y cells [2]
  AK: 115.02
Endogenous TFEB
  TFEB %: 3.28%
Endogenous TFE3
  TFE3 %: 7.67%
SH-SY5Y cells [3]
  Nuclear Count: 143.24

## COc1cc(Nc2nccc(N3CCC(NC(=O)C(C)c4ccc(Cl)cc4)C3)n2)cc(OC)c1OC (stereo not drawn) [GSK1379757]
SH-SY5Y cells [1]
  DQ Intensity: 100.22
  DQ Spot: 95.49
SH-SY5Y cells [2]
  AK: 97.54
Endogenous TFEB
  TFEB %: 5.14%
Endogenous TFE3
  TFE3 %: 15.24%
SH-SY5Y cells [3]
  Nuclear Count: 80.40

## COc1cc(Nc2nccc(N3CCC(NC(=O)c4cc5ccccc5s4)C3)n2)cc(OC)c1OC (stereo not drawn) [GSK1379760]
SH-SY5Y cells [1]
  DQ Intensity: 67.71
  DQ Spot: 93.69
SH-SY5Y cells [2]
  AK: 89.79
Endogenous TFEB
  TFEB %: 5.00%
Endogenous TFE3
  TFE3 %: 8.33%
SH-SY5Y cells [3]
  Nuclear Count: 107.53
